Results from the kinase profiling compilation of Christmann-Franck et al. (2016).

Columns and labels:
Experiment in all cases: radiometric filter-binding kinase assay, Kinase HotSpot
Conditions in all cases: compound 0.5 µM; ATP 10 µM
TSSK1B (human) = TSSK1B (human) (UniProt Q9BXA7)
KIT (human) = KIT (human) (UniProt P10721)
CDK2 CCNA2 (human) = CDK2 CCNA2 (human) (UniProt P24941+P20248)
IGF1R (human) = IGF1R (human) (UniProt P08069)
CHUK (human) = CHUK (human) (UniProt O15111)
PAK6 (human) = PAK6 (human) (UniProt Q9NQU5)
PRKCB2 (human) = PRKCB2 (human) (UniProt P05771)
MAP4K2 (human) = MAP4K2 (human) (UniProt Q12851)
MAPKAPK5 (human) = MAPKAPK5 (human) (UniProt Q8IW41)
DYRK3 (human) = DYRK3 (human) (UniProt O43781)
CAMK4 (human) = CAMK4 (human) (UniProt Q16566)
HIPK2 (human) = HIPK2 (human) (UniProt Q9H2X6)
SRPK2 (human) = SRPK2 (human) (UniProt P78362)
PRKCI (human) = PRKCI (human) (UniProt P41743)
NEK3 (human) = NEK3 (human) (UniProt P51956)
TGFBR1 (human) = TGFBR1 (human) (UniProt P36897)
NEK6 (human) = NEK6 (human) (UniProt Q9HC98)
NTRK2 (human) = NTRK2 (human) (UniProt Q16620)
ACVRL1 (human) = ACVRL1 (human) (UniProt P37023)
BTK (human) = BTK (human) (UniProt Q06187)
MAPK1 (human) = MAPK1 (human) (UniProt P28482)
SRPK3 (human) = SRPK3 (human) (UniProt Q9UPE1)
PRKD2 (human) = PRKD2 (human) (UniProt Q9BZL6)
GRK4 (human) = GRK4 (human) (UniProt P32298)
MAPK10 (human) = MAPK10 (human) (UniProt P53779)
CSNK1G1 (human) = CSNK1G1 (human) (UniProt Q9HCP0)
PDPK1 (human) = PDPK1 (human) (UniProt O15530)
CDK7 CCNH MNAT1 (human) = CDK7 CCNH MNAT1 (human) (UniProt P50613+P51948+P51946)
EPHA5 (human) = EPHA5 (human) (UniProt P54756)
MKNK2 (human) = MKNK2 (human) (UniProt Q9HBH9)
STK33 (human) = STK33 (human) (UniProt Q9BYT3)
CAMK1 (human) = CAMK1 (human) (UniProt Q14012)
PRKG2 (human) = PRKG2 (human) (UniProt Q13237)
MAP3K10 (human) = MAP3K10 (human) (UniProt Q02779)
CAMK2A (human) = CAMK2A (human) (UniProt Q9UQM7)
CDK2 CCNE1 (human) = CDK2 CCNE1 (human) (UniProt P24941+P24864)
AKT2 (human) = AKT2 (human) (UniProt P31751)
MINK1 (human) = MINK1 (human) (UniProt Q8N4C8)
ABL2 (human) = ABL2 (human) (UniProt P42684)
MELK (human) = MELK (human) (UniProt Q14680)
CDK1 CCNA2 (human) = CDK1 CCNA2 (human) (UniProt P06493+P20248)
GRK5 (human) = GRK5 (human) (UniProt P34947)

CAMK1 (human), sequence (Q14012 whole entry, looked up): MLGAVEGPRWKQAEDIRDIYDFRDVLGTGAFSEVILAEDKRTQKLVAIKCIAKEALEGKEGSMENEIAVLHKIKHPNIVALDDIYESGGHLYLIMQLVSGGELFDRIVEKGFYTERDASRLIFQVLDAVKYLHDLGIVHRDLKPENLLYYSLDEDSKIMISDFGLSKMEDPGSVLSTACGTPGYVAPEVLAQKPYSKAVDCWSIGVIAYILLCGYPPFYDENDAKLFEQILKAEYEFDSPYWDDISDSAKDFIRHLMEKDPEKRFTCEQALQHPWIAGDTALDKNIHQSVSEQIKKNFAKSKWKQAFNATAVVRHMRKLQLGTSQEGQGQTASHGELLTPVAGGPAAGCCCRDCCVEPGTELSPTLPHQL
PDPK1 (human), sequence (O15530 whole entry, looked up): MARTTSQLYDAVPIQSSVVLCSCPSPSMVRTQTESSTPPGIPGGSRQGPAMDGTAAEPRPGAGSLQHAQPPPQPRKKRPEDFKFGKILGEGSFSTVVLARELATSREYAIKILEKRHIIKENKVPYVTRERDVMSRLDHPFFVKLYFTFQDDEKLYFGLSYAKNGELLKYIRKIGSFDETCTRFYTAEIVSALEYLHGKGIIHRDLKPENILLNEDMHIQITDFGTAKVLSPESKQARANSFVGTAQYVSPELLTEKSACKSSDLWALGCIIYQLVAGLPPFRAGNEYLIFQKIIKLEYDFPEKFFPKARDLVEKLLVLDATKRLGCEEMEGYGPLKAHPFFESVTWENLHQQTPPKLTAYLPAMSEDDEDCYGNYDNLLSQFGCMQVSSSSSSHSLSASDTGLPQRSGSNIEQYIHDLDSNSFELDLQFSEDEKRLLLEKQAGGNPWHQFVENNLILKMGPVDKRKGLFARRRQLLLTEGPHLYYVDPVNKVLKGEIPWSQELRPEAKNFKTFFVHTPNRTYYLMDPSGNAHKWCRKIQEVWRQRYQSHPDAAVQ
PRKCI (human), sequence (P41743 whole entry, looked up): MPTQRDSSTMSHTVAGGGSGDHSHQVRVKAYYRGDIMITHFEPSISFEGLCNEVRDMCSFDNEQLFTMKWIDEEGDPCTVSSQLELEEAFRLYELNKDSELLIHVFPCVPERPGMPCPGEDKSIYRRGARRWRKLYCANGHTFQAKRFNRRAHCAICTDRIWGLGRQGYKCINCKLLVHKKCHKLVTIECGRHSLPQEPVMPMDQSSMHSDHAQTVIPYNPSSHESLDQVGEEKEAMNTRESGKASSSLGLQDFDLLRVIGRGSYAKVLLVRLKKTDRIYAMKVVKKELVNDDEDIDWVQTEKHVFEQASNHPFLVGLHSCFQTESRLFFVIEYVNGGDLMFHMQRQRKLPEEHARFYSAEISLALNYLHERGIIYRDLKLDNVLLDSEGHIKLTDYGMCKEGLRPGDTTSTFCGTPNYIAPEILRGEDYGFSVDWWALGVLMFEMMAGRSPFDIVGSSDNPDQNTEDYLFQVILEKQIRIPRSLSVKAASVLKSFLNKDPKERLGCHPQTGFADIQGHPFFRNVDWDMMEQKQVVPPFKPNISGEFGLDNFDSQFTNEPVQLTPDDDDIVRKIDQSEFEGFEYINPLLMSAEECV
CAMK2A (human), sequence (Q9UQM7 whole entry, looked up): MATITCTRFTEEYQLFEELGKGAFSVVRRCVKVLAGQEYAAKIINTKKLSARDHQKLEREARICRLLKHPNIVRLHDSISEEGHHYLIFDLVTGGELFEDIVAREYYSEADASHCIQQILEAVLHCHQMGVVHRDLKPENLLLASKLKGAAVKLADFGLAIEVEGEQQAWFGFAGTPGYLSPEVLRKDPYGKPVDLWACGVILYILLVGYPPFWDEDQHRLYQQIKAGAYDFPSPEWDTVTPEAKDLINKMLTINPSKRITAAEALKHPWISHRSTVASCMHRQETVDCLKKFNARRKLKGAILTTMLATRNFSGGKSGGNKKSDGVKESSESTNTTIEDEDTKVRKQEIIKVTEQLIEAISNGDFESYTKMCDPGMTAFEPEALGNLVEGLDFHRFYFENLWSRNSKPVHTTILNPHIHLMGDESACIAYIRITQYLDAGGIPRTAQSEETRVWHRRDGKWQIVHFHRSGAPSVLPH
MKNK2 (human), sequence (Q9HBH9 whole entry, looked up): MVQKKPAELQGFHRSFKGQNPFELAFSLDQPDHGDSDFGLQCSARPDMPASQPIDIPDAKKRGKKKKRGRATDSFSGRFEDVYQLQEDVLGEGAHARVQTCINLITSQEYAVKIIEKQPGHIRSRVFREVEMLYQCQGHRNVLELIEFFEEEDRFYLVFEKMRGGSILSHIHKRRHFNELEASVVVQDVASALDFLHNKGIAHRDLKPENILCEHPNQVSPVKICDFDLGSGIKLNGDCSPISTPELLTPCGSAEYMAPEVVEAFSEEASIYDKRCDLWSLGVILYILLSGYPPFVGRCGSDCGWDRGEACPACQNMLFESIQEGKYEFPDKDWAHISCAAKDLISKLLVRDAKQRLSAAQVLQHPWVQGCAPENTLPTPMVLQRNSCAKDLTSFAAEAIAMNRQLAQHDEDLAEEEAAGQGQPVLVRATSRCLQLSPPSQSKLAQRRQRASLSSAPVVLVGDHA
CDK1 CCNA2 (human), sequence (P06493 whole entry, looked up): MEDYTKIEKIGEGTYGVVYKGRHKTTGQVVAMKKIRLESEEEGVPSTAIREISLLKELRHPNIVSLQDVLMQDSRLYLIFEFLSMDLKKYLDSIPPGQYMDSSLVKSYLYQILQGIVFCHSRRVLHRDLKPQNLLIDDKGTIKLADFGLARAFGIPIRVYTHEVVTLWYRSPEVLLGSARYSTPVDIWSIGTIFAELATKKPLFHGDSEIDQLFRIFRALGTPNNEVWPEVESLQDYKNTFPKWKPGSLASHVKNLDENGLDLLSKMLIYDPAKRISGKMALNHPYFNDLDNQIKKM
CDK1 CCNA2 (human), sequence (P20248 whole entry, looked up): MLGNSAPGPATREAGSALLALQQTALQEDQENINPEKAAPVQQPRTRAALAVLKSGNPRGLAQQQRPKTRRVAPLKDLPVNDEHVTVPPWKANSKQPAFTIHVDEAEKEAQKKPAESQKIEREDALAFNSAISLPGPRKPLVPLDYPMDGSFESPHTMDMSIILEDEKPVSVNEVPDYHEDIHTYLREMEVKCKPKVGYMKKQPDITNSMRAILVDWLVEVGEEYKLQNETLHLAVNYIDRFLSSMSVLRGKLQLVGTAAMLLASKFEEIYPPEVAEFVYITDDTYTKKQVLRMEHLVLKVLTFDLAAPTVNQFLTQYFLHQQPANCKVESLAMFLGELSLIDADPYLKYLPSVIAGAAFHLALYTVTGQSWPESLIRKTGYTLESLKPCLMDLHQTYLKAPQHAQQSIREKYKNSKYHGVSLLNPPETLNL
MAP4K2 (human), sequence (Q12851 whole entry, looked up): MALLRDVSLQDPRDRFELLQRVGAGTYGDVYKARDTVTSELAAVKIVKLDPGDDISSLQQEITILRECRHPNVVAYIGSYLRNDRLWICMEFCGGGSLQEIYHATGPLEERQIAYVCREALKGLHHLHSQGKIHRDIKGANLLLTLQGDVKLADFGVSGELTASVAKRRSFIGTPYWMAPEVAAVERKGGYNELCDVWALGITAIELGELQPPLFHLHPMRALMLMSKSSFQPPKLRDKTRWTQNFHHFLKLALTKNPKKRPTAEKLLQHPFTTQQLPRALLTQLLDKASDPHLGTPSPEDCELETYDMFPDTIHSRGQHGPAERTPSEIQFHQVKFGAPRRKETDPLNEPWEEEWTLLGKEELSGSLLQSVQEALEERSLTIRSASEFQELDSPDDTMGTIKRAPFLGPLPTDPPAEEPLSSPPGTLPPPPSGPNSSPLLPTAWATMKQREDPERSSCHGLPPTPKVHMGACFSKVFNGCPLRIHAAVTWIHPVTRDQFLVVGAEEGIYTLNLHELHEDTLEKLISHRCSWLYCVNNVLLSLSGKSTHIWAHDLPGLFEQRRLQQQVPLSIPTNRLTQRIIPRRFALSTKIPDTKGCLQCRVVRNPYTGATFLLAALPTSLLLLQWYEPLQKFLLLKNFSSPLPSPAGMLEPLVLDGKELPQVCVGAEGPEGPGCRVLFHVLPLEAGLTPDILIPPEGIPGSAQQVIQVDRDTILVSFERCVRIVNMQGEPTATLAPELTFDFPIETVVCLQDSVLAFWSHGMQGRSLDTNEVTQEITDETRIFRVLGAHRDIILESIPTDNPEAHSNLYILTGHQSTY
CSNK1G1 (human), sequence (Q9HCP0 whole entry, looked up): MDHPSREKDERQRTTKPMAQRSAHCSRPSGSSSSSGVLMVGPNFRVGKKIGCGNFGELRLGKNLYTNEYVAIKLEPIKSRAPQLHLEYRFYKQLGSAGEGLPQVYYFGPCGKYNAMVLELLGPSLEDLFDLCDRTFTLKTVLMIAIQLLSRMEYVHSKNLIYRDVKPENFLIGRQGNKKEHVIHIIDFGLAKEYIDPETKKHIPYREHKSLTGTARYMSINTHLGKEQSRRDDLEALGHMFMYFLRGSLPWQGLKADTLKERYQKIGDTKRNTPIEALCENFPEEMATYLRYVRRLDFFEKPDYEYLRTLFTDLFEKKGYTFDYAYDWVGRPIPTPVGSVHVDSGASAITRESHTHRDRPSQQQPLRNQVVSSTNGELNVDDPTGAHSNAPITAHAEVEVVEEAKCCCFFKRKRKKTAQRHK
MAPK10 (human), sequence (P53779 whole entry, looked up): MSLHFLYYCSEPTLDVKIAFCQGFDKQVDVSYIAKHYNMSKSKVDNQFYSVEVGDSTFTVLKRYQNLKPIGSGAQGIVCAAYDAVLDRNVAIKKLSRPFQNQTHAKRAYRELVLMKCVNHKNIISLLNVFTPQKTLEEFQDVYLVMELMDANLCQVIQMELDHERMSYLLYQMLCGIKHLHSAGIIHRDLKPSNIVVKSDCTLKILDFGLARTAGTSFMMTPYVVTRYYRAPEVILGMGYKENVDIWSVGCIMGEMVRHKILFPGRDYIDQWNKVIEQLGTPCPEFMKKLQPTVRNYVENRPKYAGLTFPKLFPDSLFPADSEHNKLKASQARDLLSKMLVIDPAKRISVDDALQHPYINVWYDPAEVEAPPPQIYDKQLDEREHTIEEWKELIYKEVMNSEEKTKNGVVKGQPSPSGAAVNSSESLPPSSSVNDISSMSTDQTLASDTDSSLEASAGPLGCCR
CDK2 CCNA2 (human), sequence (P20248 whole entry, looked up, other chains not shown): as the sequence (P20248 whole entry, looked up) above

`O=C(NC(NC(=S)Nc1ccc(F)c([N+](=O)[O-])c1)C(Cl)(Cl)Cl)C(c1ccccc1)c1ccccc1` (stereo unspecified) was tested, and the residual activity (TSSK1B (human)) was 93.4%, the residual activity (KIT (human)) was 97.2% and the residual activity (CDK2 CCNA2 (human)) was 102%. It also gave a residual activity (IGF1R (human)) of 93.7%, a residual activity (CHUK (human)) of 91.5% and a residual activity (PAK6 (human)) of 101%. For the same compound, the residual activity (PRKCB2 (human)) was 107%, the residual activity (MAP4K2 (human)) was 111% and the residual activity (MAPKAPK5 (human)) was 102%. For the same compound, the residual activity (DYRK3 (human)) was 100%, the residual activity (CAMK4 (human)) was 98.5% and the residual activity (HIPK2 (human)) was 118%. The residual activity (SRPK2 (human)) was 103%, the residual activity (PRKCI (human)) was 94% and the residual activity (NEK3 (human)) was 96.2%. It also gave a residual activity (TGFBR1 (human)) of 92.6%, a residual activity (NEK6 (human)) of 109% and a residual activity (NTRK2 (human)) of 97.7%. It also gave a residual activity (ACVRL1 (human)) of 107%, a residual activity (BTK (human)) of 104% and a residual activity (MAPK1 (human)) of 97.6%. For the same compound, the residual activity (SRPK3 (human)) was 98%, the residual activity (PRKD2 (human)) was 107% and the residual activity (GRK4 (human)) was 101%. For the same compound, the residual activity (MAPK10 (human)) was 96.2%, the residual activity (CSNK1G1 (human)) was 83.3% and the residual activity (PDPK1 (human)) was 112%. The residual activity (CDK7 CCNH MNAT1 (human)) was 99%, the residual activity (EPHA5 (human)) was 107% and the residual activity (MKNK2 (human)) was 135%. It also gave a residual activity (STK33 (human)) of 99.6%, a residual activity (CAMK1 (human)) of 93.1% and a residual activity (PRKG2 (human)) of 96.6%. For the same compound, the residual activity (MAP3K10 (human)) was 98.9%, the residual activity (CAMK2A (human)) was 96% and the residual activity (CDK2 CCNE1 (human)) was 89.2%. For the same compound, the residual activity (AKT2 (human)) was 91.6%, the residual activity (MINK1 (human)) was 110% and the residual activity (ABL2 (human)) was 105%. The residual activity (MELK (human)) was 102%, the residual activity (CDK1 CCNA2 (human)) was 101% and the residual activity (GRK5 (human)) was 105%.

In the case of `Nc1n[nH]c2nnc(-c3c(-c4ccccc4)nn4ccccc34)cc12`, the residual activity (TSSK1B (human)) is reported as 102%, the residual activity (KIT (human)) is reported as 97.1% and the residual activity (CDK2 CCNA2 (human)) is reported as 92.9%. It also gave a residual activity (IGF1R (human)) of 102%, a residual activity (CHUK (human)) of 97.5% and a residual activity (PAK6 (human)) of 96.4%. For the same compound, the residual activity (PRKCB2 (human)) was 99.7%, the residual activity (MAP4K2 (human)) was 98.6% and the residual activity (MAPKAPK5 (human)) was 97.7%. The residual activity (DYRK3 (human)) was 99.8%, the residual activity (CAMK4 (human)) was 94.2% and the residual activity (HIPK2 (human)) was 104%. For the same compound, the residual activity (SRPK2 (human)) was 73.8%, the residual activity (PRKCI (human)) was 98.3% and the residual activity (NEK3 (human)) was 82.7%. The residual activity (TGFBR1 (human)) was 96.1%, the residual activity (NEK6 (human)) was 95.6% and the residual activity (NTRK2 (human)) was 89.7%. For the same compound, the residual activity (ACVRL1 (human)) was 106%, the residual activity (BTK (human)) was 93.6% and the residual activity (MAPK1 (human)) was 87.2%. The residual activity (SRPK3 (human)) was 88.9%, the residual activity (PRKD2 (human)) was 54.1% and the residual activity (GRK4 (human)) was 103%. It also gave a residual activity (MAPK10 (human)) of 103%, a residual activity (CSNK1G1 (human)) of 109% and a residual activity (PDPK1 (human)) of 104%. For the same compound, the residual activity (CDK7 CCNH MNAT1 (human)) was 99%, the residual activity (EPHA5 (human)) was 101% and the residual activity (MKNK2 (human)) was 98.3%. The residual activity (STK33 (human)) was 100%, the residual activity (CAMK1 (human)) was 102% and the residual activity (PRKG2 (human)) was 104%. The residual activity (MAP3K10 (human)) was 90.7%, the residual activity (CAMK2A (human)) was 102% and the residual activity (CDK2 CCNE1 (human)) was 101%. The residual activity (AKT2 (human)) was 97.5%, the residual activity (MINK1 (human)) was 73% and the residual activity (ABL2 (human)) was 57.5%. For the same compound, the residual activity (MELK (human)) was 102%, the residual activity (CDK1 CCNA2 (human)) was 101% and the residual activity (GRK5 (human)) was 106%.

`O=c1cc(N2CCNCC2)oc2c(-c3ccccc3)cccc12` showed a residual activity (TSSK1B (human)) of 89.5%, a residual activity (KIT (human)) of 101% and a residual activity (CDK2 CCNA2 (human)) of 104%. For the same compound, the residual activity (IGF1R (human)) was 103%, the residual activity (CHUK (human)) was 103% and the residual activity (PAK6 (human)) was 102%. It also gave a residual activity (PRKCB2 (human)) of 101%, a residual activity (MAP4K2 (human)) of 87.6% and a residual activity (MAPKAPK5 (human)) of 104%. The residual activity (DYRK3 (human)) was 97.8%, the residual activity (CAMK4 (human)) was 104% and the residual activity (HIPK2 (human)) was 108%. The residual activity (SRPK2 (human)) was 105%, the residual activity (PRKCI (human)) was 105% and the residual activity (NEK3 (human)) was 106%. The residual activity (TGFBR1 (human)) was 97.3%, the residual activity (NEK6 (human)) was 105% and the residual activity (NTRK2 (human)) was 102%. For the same compound, the residual activity (ACVRL1 (human)) was 106%, the residual activity (BTK (human)) was 85.7% and the residual activity (MAPK1 (human)) was 65.4%. For the same compound, the residual activity (SRPK3 (human)) was 94.4%, the residual activity (PRKD2 (human)) was 86.7% and the residual activity (GRK4 (human)) was 106%. It also gave a residual activity (MAPK10 (human)) of 85%, a residual activity (CSNK1G1 (human)) of 103% and a residual activity (PDPK1 (human)) of 110%. For the same compound, the residual activity (CDK7 CCNH MNAT1 (human)) was 99.3%, the residual activity (EPHA5 (human)) was 109% and the residual activity (MKNK2 (human)) was 107%. For the same compound, the residual activity (STK33 (human)) was 86.1%, the residual activity (CAMK1 (human)) was 99.2% and the residual activity (PRKG2 (human)) was 107%. It also gave a residual activity (MAP3K10 (human)) of 87.9%, a residual activity (CAMK2A (human)) of 104% and a residual activity (CDK2 CCNE1 (human)) of 91.6%. The residual activity (AKT2 (human)) was 100%, the residual activity (MINK1 (human)) was 97% and the residual activity (ABL2 (human)) was 99.5%. It also gave a residual activity (MELK (human)) of 94.5%, a residual activity (CDK1 CCNA2 (human)) of 84.8% and a residual activity (GRK5 (human)) of 103%.
